Experimental data as given in US12077503B2, “Substituted cyclic amides and their use as herbicides” (FMC CORPORATION, priority 2015, dated 2024).

Assays:
Type in all cases: in vivo
[1] = system: barnyardgrass (Echinochloa crus-galli); experiment: Test G Post-Emergence Protocol; conditions: Echinochloa crus-galli, post-emergence, 312 h; for pest or weed control at 15.625 g/ha: 15.625 g ai/ha, evaluated after 13 days (100=total damage to plant; 0=no damage to plant), read-out: Barnyardgrass damage rating; for pest or weed control at 62.5 g/ha: 62.5 g ai/ha, read-out: Barnyardgrass damage rating (100=total damage to plant; 0=no damage to plant); for pest or weed control at 62.5 g/ha / pest or weed control at 250 g/ha: evaluated after 13 days; for pest or weed control at 250 g/ha: 250 g ai/ha, read-out: damage to plant, Barnyardgrass (100=total damage to plant; 0=no damage to plant)
Procedure, shortened: (§1)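 A glasshouse post-emergence test: 8-day-old plants sprayed at 15.625, 62.5 or 250 g/ha, then grown at 24/16 °C day/night with 14 h light and 65% humidity. Damage rated 13 days later, 0–100.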

[2] = system: ivy-leaved morning glory (Ipomoea hederacea); experiment: Test G Post-Emergence Protocol; conditions: Ipomoea, post-emergence, 312 h; for pest or weed control at 15.625 g/ha: 15.625 g ai/ha, evaluated after 13 days (100=total damage to plant; 0=no damage to plant), read-out: Morningglory, Ivy-leaved damage rating; for pest or weed control at 62.5 g/ha: 62.5 g ai/ha, read-out: Morningglory, Ivy-leaved damage rating (100=total damage to plant; 0=no damage to plant); for pest or weed control at 62.5 g/ha / pest or weed control at 250 g/ha: evaluated after 13 days; for pest or weed control at 250 g/ha: 250 g ai/ha, read-out: damage to plant, Morningglory, Ivy-leaved (100=total damage to plant; 0=no damage to plant)
Procedure, shortened: as §1

[3] = system: giant foxtail (Setaria faberi); experiment: Test G Post-Emergence Protocol; conditions: Setaria faberi, post-emergence, 312 h; for pest or weed control at 15.625 g/ha: 15.625 g ai/ha, evaluated after 13 days (100=total damage to plant; 0=no damage to plant), read-out: Foxtail, Giant damage rating; for pest or weed control at 62.5 g/ha: 62.5 g ai/ha, read-out: Foxtail, Giant damage rating (100=total damage to plant; 0=no damage to plant); for pest or weed control at 62.5 g/ha / pest or weed control at 250 g/ha: evaluated after 13 days; for pest or weed control at 250 g/ha: 250 g ai/ha, read-out: damage to plant, Foxtail, Giant (100=total damage to plant; 0=no damage to plant)
Procedure, shortened: as §1

[4] = system: corn (Zea mays); experiment: Test G Post-Emergence Protocol; conditions: Zea mays, post-emergence, 312 h; for plant injury at 15.625 g/ha: 15.625 g ai/ha, evaluated after 13 days (100=total damage to plant; 0=no damage to plant), read-out: Corn damage rating; for plant injury at 62.5 g/ha: 62.5 g ai/ha, read-out: Corn damage rating (100=total damage to plant; 0=no damage to plant); for plant injury at 62.5 g/ha / plant injury at 250 g/ha: evaluated after 13 days; for plant injury at 250 g/ha: 250 g ai/ha, read-out: damage to plant, Corn (100=total damage to plant; 0=no damage to plant)
Procedure, shortened: as §1

[5] = system: redroot pigweed (Amaranthus retroflexus); experiment: Test G Post-Emergence Protocol; conditions: Amaranthus retroflexus, post-emergence, 312 h; for pest or weed control at 15.625 g/ha: 15.625 g ai/ha, evaluated after 13 days (100=total damage to plant; 0=no damage to plant), read-out: Pigweed, Redroot damage rating; for pest or weed control at 62.5 g/ha: 62.5 g ai/ha, read-out: Pigweed, Redroot damage rating (100=total damage to plant; 0=no damage to plant); for pest or weed control at 62.5 g/ha / pest or weed control at 250 g/ha: evaluated after 13 days; for pest or weed control at 250 g/ha: 250 g ai/ha, read-out: damage to plant, Pigweed, Redroot (100=total damage to plant; 0=no damage to plant)
Procedure, shortened: as §1

[6] = system: velvetleaf (Abutilon theophrasti); experiment: Test G Post-Emergence Protocol; conditions: Abutilon theophrasti, post-emergence, 312 h; for pest or weed control at 15.625 g/ha: 15.625 g ai/ha, evaluated after 13 days (100=total damage to plant; 0=no damage to plant), read-out: Velvetleaf damage rating; for pest or weed control at 62.5 g/ha: 62.5 g ai/ha, read-out: Velvetleaf damage rating (100=total damage to plant; 0=no damage to plant); for pest or weed control at 62.5 g/ha / pest or weed control at 250 g/ha: evaluated after 13 days; for pest or weed control at 250 g/ha: 250 g ai/ha, read-out: damage to plant, Velvetleaf (100=total damage to plant; 0=no damage to plant)
Procedure, shortened: as §1

[7] = system: barnyardgrass (Echinochloa crus-galli); experiment: Test G Pre-Emergence Protocol; conditions: Echinochloa crus-galli, pre-emergence, 312 h, evaluated after 13 days; for pest or weed control at 15.625 g/ha: 15.625 g ai/ha, read-out: Barnyard grass damage rating (100=total damage to plant; 0=no damage to plant); for pest or weed control at 62.5 g/ha: 62.5 g ai/ha, 100=total damage to plant, 0=no damage to plant, read-out: plant damage rating, Barnyardgrass; for pest or weed control at 250 g/ha: 250 g ai/ha, read-out: Barnyardgrass damage rating (100=total damage to plant; 0=no damage to plant)
Procedure, shortened: (§2)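 Visual injury (0–100) at day 13 after a single pre-emergence spray. Rates: 15.625, 62.5, 250 g/ha in acetone–water 50:50 with 0.5% Tween 20. Growth conditions: 24/16° C, 14 h light, 65% humidity.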

[8] = system: ivy-leaved morning glory (Ipomoea hederacea); experiment: Test G Pre-Emergence Protocol; conditions: Ipomoea, pre-emergence, 312 h, evaluated after 13 days; for pest or weed control at 15.625 g/ha: 15.625 g ai/ha, read-out: Morning-glory, Ivy-leaved damage rating (100=total damage to plant; 0=no damage to plant); for pest or weed control at 62.5 g/ha: 62.5 g ai/ha, 100=total damage to plant, 0=no damage to plant, read-out: plant damage rating, Morningglory, Ivy-leaved; for pest or weed control at 250 g/ha: 250 g ai/ha, read-out: Morningglory, Ivy-leaved damage rating (100=total damage to plant; 0=no damage to plant)
Procedure, shortened: as §2

[9] = system: giant foxtail (Setaria faberi); experiment: Test G Pre-Emergence Protocol; conditions: Setaria faberi, pre-emergence, 312 h, evaluated after 13 days; for pest or weed control at 15.625 g/ha: 15.625 g ai/ha; for pest or weed control at 15.625 g/ha / pest or weed control at 250 g/ha: read-out: Foxtail, Giant damage rating (100=total damage to plant; 0=no damage to plant); for pest or weed control at 62.5 g/ha: 62.5 g ai/ha, 100=total damage to plant, 0=no damage to plant, read-out: plant damage rating, Foxtail, Giant; for pest or weed control at 250 g/ha: 250 g ai/ha
Procedure, shortened: as §2

[10] = system: corn (Zea mays); experiment: Test G Pre-Emergence Protocol; conditions: Zea mays, pre-emergence, 312 h, evaluated after 13 days; for plant injury at 15.625 g/ha: 15.625 g ai/ha; for plant injury at 15.625 g/ha / plant injury at 250 g/ha: read-out: Corn damage rating (100=total damage to plant; 0=no damage to plant); for plant injury at 62.5 g/ha: 62.5 g ai/ha, 100=total damage to plant, 0=no damage to plant, read-out: plant damage rating, Corn; for plant injury at 250 g/ha: 250 g ai/ha
Procedure, shortened: as §2

[11] = system: redroot pigweed (Amaranthus retroflexus); experiment: Test G Pre-Emergence Protocol; conditions: Amaranthus retroflexus, pre-emergence, 312 h, evaluated after 13 days; for pest or weed control at 15.625 g/ha: 15.625 g ai/ha; for pest or weed control at 15.625 g/ha / pest or weed control at 250 g/ha: read-out: Pigweed, Redroot damage rating (100=total damage to plant; 0=no damage to plant); for pest or weed control at 62.5 g/ha: 62.5 g ai/ha, 100=total damage to plant, 0=no damage to plant, read-out: plant damage rating, Pigweed, Redroot; for pest or weed control at 250 g/ha: 250 g ai/ha
Procedure, shortened: as §2

[12] = system: velvetleaf (Abutilon theophrasti); experiment: Test G Pre-Emergence Protocol; conditions: Abutilon theophrasti, pre-emergence, 312 h, evaluated after 13 days; for pest or weed control at 15.625 g/ha: 15.625 g ai/ha; for pest or weed control at 15.625 g/ha / pest or weed control at 250 g/ha: read-out: Velvetleaf damage rating (100=total damage to plant; 0=no damage to plant); for pest or weed control at 62.5 g/ha: 62.5 g ai/ha, 100=total damage to plant, 0=no damage to plant, read-out: plant damage rating, Velvetleaf; for pest or weed control at 250 g/ha: 250 g ai/ha
Procedure, shortened: as §2

Row | SMILES | pest or weed control at 15.625 g/ha [1] [%] | pest or weed control at 62.5 g/ha [1] [%] | pest or weed control at 250 g/ha [1] [%] | pest or weed control at 15.625 g/ha [2] [%] | pest or weed control at 62.5 g/ha [2] [%] | pest or weed control at 250 g/ha [2] [%] | pest or weed control at 15.625 g/ha [3] [%] | pest or weed control at 62.5 g/ha [3] [%] | pest or weed control at 250 g/ha [3] [%] | plant injury at 15.625 g/ha [4] [%] | plant injury at 62.5 g/ha [4] [%] | plant injury at 250 g/ha [4] [%] | pest or weed control at 15.625 g/ha [5] [%] | pest or weed control at 62.5 g/ha [5] [%] | pest or weed control at 250 g/ha [5] [%] | pest or weed control at 15.625 g/ha [6] [%] | pest or weed control at 62.5 g/ha [6] [%] | pest or weed control at 250 g/ha [6] [%] | pest or weed control at 15.625 g/ha [7] [%] | pest or weed control at 62.5 g/ha [7] [%] | further results
1 | CN1C[C@@H](c2ccc(C(F)(F)F)cc2)[C@H](C(=O)Nc2cncnc2)C1=O (racemic) [Compound 1583] | 0 | 0 | 20 | 0 | 10 | 30 | 0 | 20 | 10 | 0 | 0 | 0 | 0 | 0 | 20 | 0 | 0 | 20 | 0 | 0 | pest or weed control at 250 g/ha [7]: 0%; pest or weed control at 15.625 g/ha [8]: 0%; pest or weed control at 62.5 g/ha [8]: 0%; pest or weed control at 250 g/ha [8]: 0%; pest or weed control at 15.625 g/ha [9]: 0%; pest or weed control at 62.5 g/ha [9]: 0%; pest or weed control at 250 g/ha [9]: 30%; plant injury at 15.625 g/ha [10]: 0%; plant injury at 62.5 g/ha [10]: 0%; plant injury at 250 g/ha [10]: 0%; pest or weed control at 15.625 g/ha [11]: 0%; pest or weed control at 62.5 g/ha [11]: 0%; pest or weed control at 250 g/ha [11]: 30%; pest or weed control at 15.625 g/ha [12]: 0%; pest or weed control at 62.5 g/ha [12]: 0%; pest or weed control at 250 g/ha [12]: 0%
2 | COc1cccc(NC(=O)[C@@H]2C(=O)N(C)C[C@H]2c2ccc(C(F)(F)F)cc2)n1 (racemic) [Compound 1601] | 0 | 40 | 70 | 0 | 10 | 30 | 0 | 80 | 70 | 0 | 10 | 30 | 0 | 10 | 30 | 0 | 20 | 50 | 0 | 10 | pest or weed control at 250 g/ha [7]: 70%; pest or weed control at 15.625 g/ha [8]: 0%; pest or weed control at 62.5 g/ha [8]: 0%; pest or weed control at 250 g/ha [8]: 0%; pest or weed control at 15.625 g/ha [9]: 0%; pest or weed control at 62.5 g/ha [9]: 20%; pest or weed control at 250 g/ha [9]: 80%; plant injury at 15.625 g/ha [10]: 0%; plant injury at 62.5 g/ha [10]: 0%; plant injury at 250 g/ha [10]: 0%; pest or weed control at 15.625 g/ha [11]: 0%; pest or weed control at 62.5 g/ha [11]: 0%; pest or weed control at 250 g/ha [11]: 50%; pest or weed control at 15.625 g/ha [12]: 0%; pest or weed control at 62.5 g/ha [12]: 0%; pest or weed control at 250 g/ha [12]: 0%
